Data taken from patent EP4324461A1, “(E)-N-CINAMOYLAMINOALKANOLES WITH MELANOGENESIS INHIBITORY ACTIVITY” (UNIWERSYTET JAGIELLONSKI, priority 2022, dated 2024).
“And” between values parts separate entries of the source, which are not always exact repeats. Equal values may be shown once. Read-outs that look alike come from different tables or passages of the source.

Key:
S. typhimurium TA98 = assay: Ames microplate test, TA98; type: cell-based, Salmonella typhimurium; details: positive control (PC), 0.5 µg/mL, +S9;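 note: reference level is the mean solvent-control yellow wells plus SD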
Method: (§1) Bacteria were grown overnight in growth medium.
(§2) Table 9. Ames microplate test results.

S. typhimurium TA100 = assay: Ames microplate test, TA100; type: cell-based, Salmonella typhimurium; details: positive control (PC), 125 µg/mL, +S9;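 note: reference level is the mean solvent-control yellow wells plus SD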
Method: as §1, §2

[1] = Lipophilicity coefficient RM0 by reversed phase thin layer chromatography; type: physicochemical; details: RP-18 TLC, methanol / 100 mM phosphate buffer pH = 7.4
Method: Confirmation of the identity and purity of the obtained compounds consisted in the registration and interpretation of ^1H NMR and ^13C NMR spectra (the spectra were recorded using an ECZR 500 MHz (JEOL) series FT-NMR spectrophotometer), as well as the registration and interpretation of LC-MS spectra (the spectra were recorded using Acquita UPLC system (Waters) coupled with a Waters TQD mass spectrometer). The melting point was measured using the open capillary method in the IA9300 device (Electrothermal). The lipophilicity coefficient RM0 was determined by reversed phase thin layer chromatography. In the study, aluminum plates 20x20 cm covered with modified silica gel RP-18 F254 (Merck) were used as the solid phase. The mobile phase consisted of solutions of methanol and 100 mM phosphate buffer (pH = 7.4), characterized by a variable methanol content ranging from 95 to 65% (v/v). The tested compounds were dissolved in methanol to obtain solutions with a concentration of 1 mg/mL. Then, 5 µL of the solutions prepared in this way were transferred to the starting line on aluminum plates, which were then placed in chromatographic chambers previously saturated with mobile phase vapors for at least 1 hour. All activities, including the development of chromatograms, were carried out at room temperature. After developing the chromatograms to approximately 1-2 cm from the end of the plate, the plates were dried and then the distance traveled by the tested compounds was visualized under UV light (λ = 254 nm). The experiment was performed in duplicate for the specified conditions. For all samples, Rf was calculated according to the formula Rf = a/b, where a - the distance traveled by the tested compound, b - the distance traveled by the mobile phase. Then, the RM parameter was calculated for all samples according to the formula RM = log(1/Rf - 1), obtaining a linear relationship between the RM values and the methanol concentration in the mobile phase. The logP coefficient was also calculated using the following computer programs: ACD/ChemSketch 2020.1.2 and ChemDraw 20.0.0.41. Table 2. The physicochemical data of the compounds are presented below

tyrosinase from mushroom = assay: Inhibition of commercial mushroom tyrosinase (L-DOPA or L-tyrosine substrate); type: biochemical
Method: The following substrates were used for the enzymatic reaction: L-tyrosine and L-3,4-dihyroxyphenylalanine (L-DOPA). Both substrates were used in independent experiments. According to the literature, the use of L-DOPA enables the assessment of tyrosinase diphenolase activity, and L-tyrosine - the tyrosinase monophenolase activity. The determinations were performed in 96-well plates, in each well there was placed: 170 µL or 127.5 µL of 50 mM phosphate buffer (pH = 6.8) with tyrosinase (1U/well or 3U/well) and 10 µL of a solution of the tested compound in DMSO (the final concentration in the well was 500 µM, 250 µM or 125 µM). The negative control used 10 µL of pure solvent (DMSO). To initiate the reaction, an appropriate substrate was added: L-tyrosine (62.5 µL of solution in phosphate buffer) or L-DOPA (20 µL of solution in phosphate buffer). After a 25-minute incubation, the absorbance was measured at 475 nm using a microplate reader. The percentage of inhibition of tyrosinase activity was calculated using the formula: [(AC -AT)/AC] × 100, where AC - is the absorbance of the negative control, AT - is the absorbance of the sample containing the tested compound.

[2] = system: B16-F10 murine melanoma cell line; assay: Cytotoxicity in B16-F10 cells (MTT); type: cell-based; details: 48 h
Method: In order to determine safe doses of compounds for testing the inhibition of melanogenesis in a murine melanoma cell line, cytotoxicity tests were performed. Cytotoxicity was determined by the colorimetric method using MTT ([3-(4,5-dimethyl-2-thiazolyl)-2,5-diphenyl-2H-tetrazolium bromide, Sigma M5655). For this purpose, cells were transferred to 96-well plates in an amount of 5000/well. After 24 h of culture in an incubator in F 10-Ham medium with 1% FBS, the tested compounds at various concentrations were added to the wells together with fresh medium. DMSO was added to the medium in a negative control. The MTT test was performed after further culture for 48 h. Then the medium was removed and the formed formazan crystals were dissolved in DMSO. The absorbance was measured at 570 nm in a plate reader and the result was compared to the control (DMSO), which was 100%. The percentage of viability was calculated using the formula: [AT/AC^∗100], where AT is the absorbance of the test sample, AC - absorbance of the control sample. Table 3. Results of inhibiting the activity of monophenolase […] tyrosinase and cytotoxicity testing in B16F10 cells for the described compounds.

[3] = L-DOPA, read-out: Tyrosinase inhibition with L-DOPA, IC50
[4] = L-tyrosine, read-out: Tyrosinase inhibition with L-tyrosine, IC50

Compound	RM0 [1]	Tyrosinase inhibition with L-DOPA [%] (tyrosinase from mushroom; L-DOPA)	IC50 (tyrosinase from mushroom; [3])	Tyrosinase inhibition with L-tyrosine [%] (tyrosinase from mushroom; L-tyrosine)	IC50 (tyrosinase from mushroom; [4])	Tyrosinase inhibition with L-DOPA [%] (tyrosinase from mushroom; L-DOPA, concentration not given)	Increase in the number of yellow wells compared to the reference level (S. typhimurium TA98)	Increase in the number of yellow wells compared to the reference level (S. typhimurium TA100)	Cytotoxicity study in B16F10 cells % viability ([2]; 150 µM)	Cytotoxicity study in B16F10 cells % viability ([2]; 200 µM)	Cytotoxicity study in B16F10 cells % viability ([2]; 250 µM)	Cytotoxicity study in B16F10 cells % viability ([2]; 12.5 µM)	Cytotoxicity study in B16F10 cells % viability ([2]; 25 µM)	Cytotoxicity study in B16F10 cells % viability ([2]; 50 µM)
Nc1ccc2cc3ccccc3cc2c1 [Compound 2-AA, 2-aminoanthracene, reference compound]							24.00 and 15.03	4.00						
CCC(CO)NC(=O)/C=C/c1ccc(Cl)cc1Cl (stereo not drawn) [H-285/20, (2E)-3-(2,4-dichlorophenyl)-N-(1-hydroxybutan-2-yl)prop-2-enamide]	3.08	0.21±5.64% (500 µM)		14.56±1.63% (500 µM)					84.2%	74.8%	24.6%			
O=C(/C=C/c1ccc(Cl)cc1Cl)NCCCO [H-296/20, (2E)-3-(2,4-dichlorophenyl)-N-(3-hydroxypropyl)prop-2-enamide]	2.11	18.63±1.67% (500 µM)		17.87±7.36% (500 µM)					67.0%	57.0%	38.3%			
O=C(/C=C/c1ccc(Cl)cc1Cl)NCCCCCO [H-297/20, (2E)-3-(2,4-dichlorophenyl)-N-(5-hydroxypentyl)prop-2-enamide]	3.08	20.53±2.84% (500 µM)		19.09±2.53% (500 µM)					102.3%	73.6%	88.5%			
O=C(/C=C/c1ccc(Cl)cc1Cl)NCCCCO [H-298/20, (2E)-3-(2,4-dichlorophenyl)-N-(4-hydroxybutyl)prop-2-enamide]	2.78	11.16±2.78 (500 µM) %		20±2.96% (500 µM)					46.5%	40.6%	37.4%			
O=C(/C=C/c1ccc(Cl)cc1Cl)N1CCC(O)CC1 [H-310/20, (2E)-3-(2,4-dichlorophenyl)-1-(4-hydroxypiperidin-1-yl)prop-2-en-1-one]	2.80	7.23±0.81% (500 µM)		19.24±3.44% (500 µM)					89.5%	100.4%	93.0%			
CCC(O)CNC(=O)/C=C/c1ccc(Cl)cc1Cl (stereo not drawn) [H-320/21, (2E)-3-(2,4-dichlorophenyl)-N-(2-hydroxybutyl)prop-2-enamide]	3.08	5.8±3.04% (500 µM)		24.43±8.05% (500 µM)					101.7%	90.8%	33.9%			
O=C(/C=C/c1ccc(Cl)cc1)NCCCCO [H-331/21, (2E)-3-(4-chlorophenyl)-N-(4-hydroxybutyl)prop-2-enamide]	2.14	64.31±0.21% (500 µM)	153 µM	82.50±0.87% (500 µM)	103 µM				32.7%	51.9%	52.7%	49.0%	47.8%	54.2%
CCC(CO)NC(=O)/C=C/c1ccc(C)cc1 (stereo not drawn) [H-409/21, (2E)-N-(1-hydroxybutan-2-yl)-3-(4-methylphenyl)prop-2-enamide]	2.49	21.81±2.31% (500 µM)		15.31±8.27% (500 µM)					83.2%	95.3%	103.4%			

Now from value to compound, other results behind:

RM0 [1]	Tyrosinase inhibition with L-DOPA [%] (tyrosinase from mushroom; L-DOPA)	IC50 (tyrosinase from mushroom; [3])	Tyrosinase inhibition with L-tyrosine [%] (tyrosinase from mushroom; L-tyrosine)	IC50 (tyrosinase from mushroom; [4])	Tyrosinase inhibition with L-DOPA [%] (tyrosinase from mushroom; L-DOPA, concentration not given)	Compound	Increase in the number of yellow wells compared to the reference level (S. typhimurium TA98)	Increase in the number of yellow wells compared to the reference level (S. typhimurium TA100)	Cytotoxicity study in B16F10 cells % viability ([2]; 150 µM)	Cytotoxicity study in B16F10 cells % viability ([2]; 200 µM)	Cytotoxicity study in B16F10 cells % viability ([2]; 250 µM)	Cytotoxicity study in B16F10 cells % viability ([2]; 12.5 µM)	Cytotoxicity study in B16F10 cells % viability ([2]; 25 µM)	Cytotoxicity study in B16F10 cells % viability ([2]; 50 µM)
2.43	43.99±2.60% (500 µM)	734 µM	61.80±0.40% (500 µM)	284 µM		CCC(CO)NC(=O)/C=C/c1ccc(Cl)cc1 (stereo not drawn) [Compound A-01, (2E)-3-(4-chlorophenyl)-N-(1-hydroxybutan-2-yl)prop-2-enamide]			73.6%	93.2%	85.4%			
1.60	34.55±4.18% (500 µM)	1560 µM	35.50±1.37% (500 µM)	1030 µM		O=C(/C=C/c1ccccc1)NCCCCO [Compound A-43, (2E)-N-(4-hydroxybutyl)-3-phenylprop-2-enamide]			108.9%	105.7%	103.2%			
2.39	21.19±1.26% (500 µM)		30.22±10.22% (500 µM)			CCC(O)CNC(=O)/C=C/c1ccc(C)cc1 (stereo not drawn) [Compound A-63, (2E)-N-(2-hydroxybutyl)-3-(4-methylphenyl)prop-2-enamide]			90.2%	87.3%	87.4%			
2.17	22.96±6.64% (500 µM)		4.40±7.15% (500 µM)			Cc1ccc(/C=C/C(=O)NC(C)CO)cc1 (stereo not drawn) [Compound A-69, (2E)-N-(1-hydroxypropan-2-yl)-3-(4-methylphenyl)prop-2-enamide]			96.6%	101.3%	97.5%			
2.27		450 µM	75.14±1.60% (500 µM)	177 µM	54.87±1.47%	O=C(/C=C/c1ccc(Cl)cc1)N1CCC(O)CC1 [Compound A-99, (2E)-3-(4-chlorophenyl)-1-(4-hydroxypiperidin-1-yl)prop-2-en-1-one]			109.8%	102.6%	96.6%			
2.76	41.17±0.81% (500 µM)	906 µM	57.62±2.11% (500 µM)	405 µM		CC(C)C(CO)NC(=O)/C=C/c1ccc(Cl)cc1 (stereo not drawn) [Compound A-106, (2E)-3-(4-chlorophenyl)-N-(1-hydroxy-3-methylbutan-2-yl)prop-2-enamide]			85.9%	88.1%	72.6%			
